Data reported in US9981975B2, “Pyrrolotriazine compounds as tam inhibitors” (Incyte Corporation, priority 2016, dated 2018).

Experiments:
phosphor-Axl = phosphor-Axl (Homo sapiens (Human), UniProt P30530); experiment: TAM Enzymatic Assay (HTRF), Axl; format: biochemical; settings: recombinant autophosphorylated Axl, 60 min, room temperature
Procedure: Autophosphorylation of Axl was carried out by incubating the recombinant Axl protein (Life Technologies, PV4275) in buffer containing 50 mM Tris, pH7.5, 0.2 mg/ml Axl, 5 mM ATP, 20 mM MgCl2 and 2 mM DTT at room temperature for 1 hour.
(§1) The kinase assay buffer contained 50 mM HEPES, pH7.5, 10 mM MgCl2, 1 mM EGTA, 0.01% NP-40 and 2 mM DTT. 0.1 ul test compounds dissolved in DMSO were transferred from compound plates to white 384-well assay plates (Greiner […] plates). […] 4 ul enzyme solution (or assay buffer for the enzyme blank) was added to the appropriate wells in each plate, and then 4 ul/well substrate solution was added to initiate the reaction. The plate was protected from light and incubated at room temperature for 60 min. […] The plate was incubated for 1 h at room temperature, and HTRF (homogenous time resolved fluorescence) signal was measured on a PHERAstar FS plate reader (BMG labtech). Percentage of inhibition was calculated for each concentration and IC50 value was generated from curve fitting with GraphPad Prism software.

Tyro3 = Tyro3 (Homo sapiens (Human), UniProt Q06418); experiment: TAM Enzymatic Assay (HTRF), Tyro3; format: biochemical; settings: Tyro3, 60 min, room temperature
Chain of Tyro3 (Q06418 41-890): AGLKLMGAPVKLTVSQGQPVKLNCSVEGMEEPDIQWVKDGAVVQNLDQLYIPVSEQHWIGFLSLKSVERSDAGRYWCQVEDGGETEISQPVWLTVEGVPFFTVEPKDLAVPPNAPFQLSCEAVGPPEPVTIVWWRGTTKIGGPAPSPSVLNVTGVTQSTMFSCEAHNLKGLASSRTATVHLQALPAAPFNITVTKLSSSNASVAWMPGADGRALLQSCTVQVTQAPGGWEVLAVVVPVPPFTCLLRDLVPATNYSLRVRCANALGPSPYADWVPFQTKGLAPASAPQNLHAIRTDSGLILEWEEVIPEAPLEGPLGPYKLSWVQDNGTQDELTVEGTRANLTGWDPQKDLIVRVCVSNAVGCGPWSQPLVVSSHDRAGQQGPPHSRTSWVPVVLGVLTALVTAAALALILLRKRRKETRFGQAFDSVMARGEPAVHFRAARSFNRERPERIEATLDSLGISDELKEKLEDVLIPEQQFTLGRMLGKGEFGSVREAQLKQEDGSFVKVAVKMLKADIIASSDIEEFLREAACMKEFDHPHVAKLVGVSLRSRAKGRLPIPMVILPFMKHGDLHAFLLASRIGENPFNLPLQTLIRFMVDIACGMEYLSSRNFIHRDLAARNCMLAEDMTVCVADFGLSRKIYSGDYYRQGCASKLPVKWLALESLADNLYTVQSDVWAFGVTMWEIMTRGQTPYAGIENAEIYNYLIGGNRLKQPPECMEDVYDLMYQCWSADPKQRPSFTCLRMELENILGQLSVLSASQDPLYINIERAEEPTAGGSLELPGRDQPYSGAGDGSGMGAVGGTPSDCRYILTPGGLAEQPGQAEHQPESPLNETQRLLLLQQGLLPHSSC
Procedure: as §1

Chain of phosphor-Axl (P30530 26-894): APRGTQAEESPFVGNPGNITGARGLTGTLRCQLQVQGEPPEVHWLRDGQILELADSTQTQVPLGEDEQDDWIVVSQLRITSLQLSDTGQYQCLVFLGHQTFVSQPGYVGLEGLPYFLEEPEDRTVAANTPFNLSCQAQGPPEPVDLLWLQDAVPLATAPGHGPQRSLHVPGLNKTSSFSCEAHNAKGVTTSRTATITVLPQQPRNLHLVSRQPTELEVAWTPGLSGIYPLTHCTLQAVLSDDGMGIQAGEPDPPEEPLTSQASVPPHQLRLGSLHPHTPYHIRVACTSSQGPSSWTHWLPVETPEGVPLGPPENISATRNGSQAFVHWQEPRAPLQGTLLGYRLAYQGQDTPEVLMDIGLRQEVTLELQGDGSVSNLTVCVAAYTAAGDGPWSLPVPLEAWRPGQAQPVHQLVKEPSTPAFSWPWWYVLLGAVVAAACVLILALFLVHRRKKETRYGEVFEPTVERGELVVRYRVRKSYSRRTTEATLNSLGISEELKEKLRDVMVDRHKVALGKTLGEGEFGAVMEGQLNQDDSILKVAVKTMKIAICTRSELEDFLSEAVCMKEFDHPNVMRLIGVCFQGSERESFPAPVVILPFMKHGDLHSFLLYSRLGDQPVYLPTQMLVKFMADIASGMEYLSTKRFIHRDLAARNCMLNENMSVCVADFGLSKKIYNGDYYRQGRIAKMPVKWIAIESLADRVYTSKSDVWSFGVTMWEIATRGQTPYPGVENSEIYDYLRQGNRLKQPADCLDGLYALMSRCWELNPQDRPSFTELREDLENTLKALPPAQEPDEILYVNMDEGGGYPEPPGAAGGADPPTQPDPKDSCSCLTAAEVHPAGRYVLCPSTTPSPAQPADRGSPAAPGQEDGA

| SMILES | IC50 (phosphor-Axl) [µM] | IC50 (Tyro3) [µM] |
| --- | --- | --- |
| CCN(C)C(=O)N1CCC(c2cc(-c3ccc(NC(=O)c4cc5c(n(-c6ccc(F)cc6)c4=O)CCCC5=O)cc3)c3c(N)ncnn23)CC1 [Example 57, N-{4-[4-Amino-7-(1-{[ethyl(methyl)amino]carbonyl}piperidin-4-yl)pyrrolo[2,1-f][1,2,4]triazin-5-yl]phenyl}-1-(4-fluorophenyl)-2,5-dioxo-1,2,5,6,7,8-hexahydroquinoline-3-carboxamide] | ≤ 0.005 | > 0.1 |
| Cc1cc(C(=O)N(C)C)ncc1-c1cc(-c2ccc(NC(=O)c3cn(C(C)C)c(=O)n(-c4ccccc4)c3=O)cc2)c2c(N)ncnn12 [Example 85, N-(4-(4-amino-7-(6-(dimethylcarbamoyl)-4-methylpyridin-3-yl)pyrrolo[1,2-f][1,2,4]triazin-5-yl)phenyl)-1-isopropyl-2,4-dioxo-3-phenyl-1,2,3,4-tetrahydropyrimidine-5-carboxamide] | ≤ 0.005 | > 0.1 |
| CC(C)C(=O)N1CCC(c2cc(-c3ccc(NC(=O)c4cn(C(C)C)cc(-c5cncc(F)c5)c4=O)cc3)c3c(N)ncnn23)CC1 [Example 129, N-(4-(4-amino-7-(1-isobutyrylpiperidin-4-yl)pyrrolo[1,2-f][1,2,4]triazin-5-yl)phenyl)-5-(5-fluoropyridin-3-yl)-1-isopropyl-4-oxo-1,4-dihydropyridine-3-carboxamide] | ≤ 0.005 | > 0.1 |
| Cc1c(-c2ccnn2C)cc(C(=O)Nc2ccc(-c3cc(C4CCN(C(=O)C(C)C)CC4)n4ncnc(N)c34)cc2)c(=O)n1-c1cccnc1 [Example 134, N-(4-(4-Amino-7-(1-isobutyrylpiperidin-4-yl)pyrrolo[2,1-f][1,2,4]triazin-5-yl)phenyl)-6-methyl-5-(1-methyl-1H-pyrazol-5-yl)-2-oxo-2H-[1,3′-bipyridine]-3-carboxamide] | ≤ 0.005 | > 0.1 |
| CC(C)C(=O)N1CCC(c2cc(-c3ccc(NC(=O)c4cn(C5CC5)c(=O)n(-c5ccccn5)c4=O)cc3)c3c(N)ncnn23)CC1 [Example 144, N-(4-(4-Amino-7-(1-isobutyrylpiperidin-4-yl)pyrrolo[1,2-f][1,2,4]triazin-5-yl)phenyl)-1-cyclopropyl-2,4-dioxo-3-(pyridin-2-yl)-1,2,3,4-tetrahydropyrimidine-5-carboxamide] | ≤ 0.005 | > 0.1 |
| Cc1c(N2CCOCC2)cc(C(=O)Nc2ccc(-c3cc(C4CCN(C(=O)C(C)C)CC4)n4ncnc(N)c34)cc2)c(=O)n1-c1ccccc1 [Example 110, N-{4-[4-Amino-7-(1-isobutyrylpiperidin-4-yl)pyrrolo[2,1-f][1,2,4]triazin-5-yl]phenyl}-6-methyl-5-morpholin-4-yl-2-oxo-1-phenyl-1,2-dihydropyridine-3-carboxamide] | ≤ 0.005 | > 0.1 |
| CC(C)C(=O)N1CCC(c2cc(-c3ccc(NC(=O)c4cn(C(C)C)c(=O)n(-c5cc(F)ccc5F)c4=O)cc3)c3c(N)ncnn23)CC1 [Example 76, N-(4-(4-Amino-7-(1-isobutyrylpiperidin-4-yl)pyrrolo[1,2-f][1,2,4]triazin-5-yl)phenyl)-3-(2,5-difluorophenyl)-1-isopropyl-2,4-dioxo-1,2,3,4-tetrahydropyrimidine-5-carboxamide] | ≤ 0.005 | > 0.1 |
| CCn1cc(C(=O)Nc2ccc(-c3cc(C4CCN(C(=O)N(C)C)CC4)n4ncnc(N)c34)cc2)c(=O)n(-c2cccc(F)c2)c1=O [Example 72, N-(4-(4-Amino-7-(1-(dimethylcarbamoyl)piperidin-4-yl)pyrrolo[1,2-f][1,2,4]triazin-5-yl)phenyl)-1-ethyl-3-(3-fluorophenyl)-2,4-dioxo-1,2,3,4-tetrahydropyrimidine-5-carboxamide] | ≤ 0.005 | > 0.1 |
| CC(C)C(=O)N1CCC(c2cc(-c3ccc(NC(=O)c4cc(C5CC5)nn(-c5ccccc5)c4=O)cc3)c3c(N)ncnn23)CC1 [Example 117, N-{4-[4-Amino-7-(1-isobutyrylpiperidin-4-yl)pyrrolo[2,1-f][1,2,4]triazin-5-yl]phenyl}-6-cyclopropyl-3-oxo-2-phenyl-2,3-dihydropyridazine-4-carboxamide] | ≤ 0.005 | > 0.1 |
| Cc1c(-c2cnn(C)c2)cc(C(=O)Nc2ccc(-c3cc(C4CCN(C(=O)C(C)C)CC4)n4ncnc(N)c34)cc2)c(=O)n1-c1cccnc1 [Example 133, N-(4-(4-Amino-7-(1-isobutyrylpiperidin-4-yl)pyrrolo[2,1-f][1,2,4]triazin-5-yl)phenyl)-6-methyl-5-(1-methyl-1H-pyrazol-4-yl)-2-oxo-2H-[1,3′-bipyridine]-3-carboxamide] | ≤ 0.005 | > 0.1 |
| CC(C)C(=O)N1CCC(c2cc(-c3ccc(NC(=O)c4cc5c(n(-c6cncc(F)c6)c4=O)CCC(C)(C)C5=O)cc3)c3c(N)ncnn23)CC1 [Example 115, N-(4-(4-Amino-7-(1-isobutyrylpiperidin-4-yl)pyrrolo[1,2-f][1,2,4]triazin-5-yl)phenyl)-1-(5-fluoropyridin-3-yl)-6,6-dimethyl-2,5-dioxo-1,2,5,6,7,8-hexahydroquinoline-3-carboxamide] | ≤ 0.005 | > 0.1 |
| Cc1cccc(-n2c(=O)c(C(=O)Nc3ccc(-c4cc(C5CCN(C(=O)C(C)C)CC5)n5ncnc(N)c45)cc3)cn(C(C)C)c2=O)n1 [Example 149, N-(4-(4-Amino-7-(1-isobutyrylpiperidin-4-yl)pyrrolo[1,2-f][1,2,4]triazin-5-yl)phenyl)-1-isopropyl-3-(6-methylpyridin-2-yl)-2,4-dioxo-1,2,3,4-tetrahydropyrimidine-5-carboxamide] | ≤ 0.005 | > 0.1 |
| CCOCc1c(C#N)cc(C(=O)Nc2ccc(-c3cc(C4CCN(C(=O)C(C)C)CC4)n4ncnc(N)c34)cc2)c(=O)n1-c1ccccc1 [Example 137, N-(4-(4-Amino-7-(1-isobutyrylpiperidin-4-yl)pyrrolo[2,1-f][1,2,4]triazin-5-yl)phenyl)-5-cyano-6-(ethoxymethyl)-2-oxo-1-phenyl-1,2-dihydropyridine-3-carboxamide] | ≤ 0.005 | > 0.1 |
| Cc1ncccc1-c1c(C)n(C2CC2)cc(C(=O)Nc2ccc(-c3cc(C4CCN(C(=O)C(C)C)CC4)n4ncnc(N)c34)cc2)c1=O [Example 142, N-(4-(4-Amino-7-(1-isobutyrylpiperidin-4-yl)pyrrolo[2,1-f][1,2,4]triazin-5-yl)phenyl)-1-cyclopropyl-2,2′-dimethyl-4-oxo-1,4-dihydro-[3,3′-bipyridine]-5-carboxamide] | ≤ 0.005 | > 0.1 |
| CC(C)C(=O)N1CCC(c2cc(-c3ccc(NC(=O)c4cn(C(C)C)c(=O)n(-c5ncccn5)c4=O)cc3)c3c(N)ncnn23)CC1 [Example 143, N-(4-(4-Amino-7-(1-isobutyrylpiperidin-4-yl)pyrrolo[1,2-f][1,2,4]triazin-5-yl)phenyl)-1-isopropyl-2,4-dioxo-3-(pyrimidin-2-yl)-1,2,3,4-tetrahydropyrimidine-5-carboxamide] | ≤ 0.005 | > 0.1 |
| CCN(C)C(=O)N1CCC(c2cc(-c3ccc(NC(=O)c4cc5c(n(-c6ccc(F)cc6)c4=O)CCCC5=O)cc3F)c3c(N)ncnn23)CC1 [Example 58, N-{4-[4-Amino-7-(1-{[ethyl(methyl)amino]carbonyl}piperidin-4-yl)pyrrolo[2,1-f][1,2,4]triazin-5-yl]-3-fluorophenyl}-1-(4-fluorophenyl)-2,5-dioxo-1,2,5,6,7,8-hexahydroquinoline-3-carboxamide] | ≤ 0.005 | > 0.1 |
| CCN(C)C(=O)N1CCC(c2cc(-c3ccc(NC(=O)c4cn(C(C)C)c(=O)n(-c5ccccc5F)c4=O)cc3)c3c(N)ncnn23)CC1 [Example 69, N-(4-(4-Amino-7-(1-(ethyl(methyl)carbamoyl)piperidin-4-yl)pyrrolo[1,2-f][1,2,4]triazin-5-yl)phenyl)-3-(2-fluorophenyl)-1-isopropyl-2,4-dioxo-1,2,3,4-tetrahydropyrimidine-5-carboxamide] | ≤ 0.005 | > 0.1 |
| CC(C)n1cc(C(=O)Nc2ccc(-c3cc(CN4CCOCC4)n4ncnc(N)c34)cc2)c(=O)n(-c2ccccc2)c1=O [Example 95, N-(4-(4-Amino-7-(morpholinomethyl)pyrrolo[1,2-f][1,2,4]triazin-5-yl)phenyl)-1-isopropyl-2,4-dioxo-3-phenyl-1,2,3,4-tetrahydropyrimidine-5-carboxamide] | ≤ 0.005 | > 0.1 |
| CCn1cc(C(=O)Nc2ccc(-c3cc(C4CCN(C(=O)C(C)C)CC4)n4ncnc(N)c34)cc2)c(=O)n(-c2cccc(F)c2)c1=O [Example 73, N-(4-(4-Amino-7-(1-isobutyrylpiperidin-4-yl)pyrrolo[1,2-f][1,2,4]triazin-5-yl)phenyl)-1-ethyl-3-(3-fluorophenyl)-2,4-dioxo-1,2,3,4-tetrahydropyrimidine-5-carboxamide] | ≤ 0.005 | > 0.1 |
| Cc1cc(NC(=O)c2cn(C(C)C)c(=O)n(-c3ccccc3)c2=O)ccc1-c1cc(C2CCN(C(=O)C(C)C)CC2)n2ncnc(N)c12 [Example 77, N-(4-(4-Amino-7-(1-isobutyrylpiperidin-4-yl)pyrrolo[1,2-f][1,2,4]triazin-5-yl)-3-methylphenyl)-1-isopropyl-2,4-dioxo-3-phenyl-1,2,3,4-tetrahydropyrimidine-5-carboxamide] | ≤ 0.005 | > 0.1 |
